What follows are compounds tested against T1, Androgen receptor (Homo sapiens, UniProt P10275) (assay: Displacement of [3H]DHT from AR in human MDA-MB-453 cells).
T1 sequence (P10275 whole entry): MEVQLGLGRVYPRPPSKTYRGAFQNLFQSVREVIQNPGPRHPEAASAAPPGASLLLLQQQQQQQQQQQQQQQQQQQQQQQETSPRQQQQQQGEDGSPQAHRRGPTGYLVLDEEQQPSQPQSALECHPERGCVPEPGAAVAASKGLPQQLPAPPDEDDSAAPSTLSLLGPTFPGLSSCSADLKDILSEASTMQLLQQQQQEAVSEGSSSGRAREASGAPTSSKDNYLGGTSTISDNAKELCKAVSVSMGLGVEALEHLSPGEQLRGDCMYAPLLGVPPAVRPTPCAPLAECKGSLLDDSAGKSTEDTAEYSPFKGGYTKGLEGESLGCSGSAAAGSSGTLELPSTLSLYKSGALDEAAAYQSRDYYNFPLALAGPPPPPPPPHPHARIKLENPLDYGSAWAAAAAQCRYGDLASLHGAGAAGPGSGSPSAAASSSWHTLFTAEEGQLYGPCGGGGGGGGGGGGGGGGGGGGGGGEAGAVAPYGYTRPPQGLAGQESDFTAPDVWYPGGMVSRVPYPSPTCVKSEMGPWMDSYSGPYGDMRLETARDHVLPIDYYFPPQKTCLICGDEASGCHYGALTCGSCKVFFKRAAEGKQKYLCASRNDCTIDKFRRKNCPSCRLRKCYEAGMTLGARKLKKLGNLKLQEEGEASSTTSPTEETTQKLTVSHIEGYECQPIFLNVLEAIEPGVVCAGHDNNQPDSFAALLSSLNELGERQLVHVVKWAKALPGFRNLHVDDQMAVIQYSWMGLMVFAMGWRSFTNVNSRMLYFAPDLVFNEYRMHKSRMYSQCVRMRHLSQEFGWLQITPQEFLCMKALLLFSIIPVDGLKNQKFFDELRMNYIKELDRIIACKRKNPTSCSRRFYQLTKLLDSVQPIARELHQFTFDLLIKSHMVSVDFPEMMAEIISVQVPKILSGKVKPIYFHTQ
`C[C@]12CN(C(=O)c3ccccc3)C[C@](C)(O1)[C@@H]1C(=O)N(c3ccc(C#N)c(C(F)(F)F)c3)C(=O)[C@@H]12` gave a Ki of 23 nM. With `CC(C)NC(=O)N1C[C@@]2(C)O[C@@](C)(C1)[C@@H]1C(=O)N(c3ccc(C#N)c(C(F)(F)F)c3)C(=O)[C@@H]12` the Ki was 98 nM. Work on `C[C@]12CN(C(=O)Nc3ccccc3)C[C@](C)(O1)[C@@H]1C(=O)N(c3ccc(C#N)c(C(F)(F)F)c3)C(=O)[C@@H]12` yielded a Ki of 40 nM. For `CCOC(=O)N1C[C@@]2(C)O[C@@](C)(C1)[C@@H]1C(=O)N(c3ccc(C#N)c(C(F)(F)F)c3)C(=O)[C@@H]12`, the Ki was 5.7 nM. In the case of `CCCOC(=O)N1C[C@@]2(C)O[C@@](C)(C1)[C@@H]1C(=O)N(c3ccc(C#N)c(C(F)(F)F)c3)C(=O)[C@@H]12`, the Ki is reported as 6.6 nM. `C[C@]12CN(C(=O)Nc3ccc(F)cc3)C[C@](C)(O1)[C@@H]1C(=O)N(c3ccc(C#N)c(C(F)(F)F)c3)C(=O)[C@@H]12` gave a Ki of 29 nM. For `C[C@]12CN(S(C)(=O)=O)C[C@](C)(O1)[C@@H]1C(=O)N(c3ccc(C#N)c(C(F)(F)F)c3)C(=O)[C@@H]12`, the Ki was 56 nM.

These compounds were tested on LNCaP (assay: Cytotoxicity against human LNCAP cells assessed as inhibition of DHT-induced cell growth at 5 uM).
Assay type: functional
With `C[C@]12CN(C(=O)c3ccccc3)C[C@](C)(O1)[C@@H]1C(=O)N(c3ccc(C#N)c(C(F)(F)F)c3)C(=O)[C@@H]12` the inhibition at 5 µM was 98%. With `CC(C)NC(=O)N1C[C@@]2(C)O[C@@](C)(C1)[C@@H]1C(=O)N(c3ccc(C#N)c(C(F)(F)F)c3)C(=O)[C@@H]12` the inhibition at 5 µM was 52%. With `C[C@]12CN(C(=O)Nc3ccccc3)C[C@](C)(O1)[C@@H]1C(=O)N(c3ccc(C#N)c(C(F)(F)F)c3)C(=O)[C@@H]12` the inhibition at 5 µM was 98%. With `CCOC(=O)N1C[C@@]2(C)O[C@@](C)(C1)[C@@H]1C(=O)N(c3ccc(C#N)c(C(F)(F)F)c3)C(=O)[C@@H]12` the inhibition at 5 µM was 93%. With `CCCOC(=O)N1C[C@@]2(C)O[C@@](C)(C1)[C@@H]1C(=O)N(c3ccc(C#N)c(C(F)(F)F)c3)C(=O)[C@@H]12` the inhibition at 5 µM was 99%. Work on `C[C@]12CN(C(=O)Nc3ccc(F)cc3)C[C@](C)(O1)[C@@H]1C(=O)N(c3ccc(C#N)c(C(F)(F)F)c3)C(=O)[C@@H]12` yielded an inhibition at 5 µM of 98%. `C[C@]12CN(S(C)(=O)=O)C[C@](C)(O1)[C@@H]1C(=O)N(c3ccc(C#N)c(C(F)(F)F)c3)C(=O)[C@@H]12` was tested, and the inhibition at 5 µM was 61%.

What follows are compounds tested on MDA-MB-435 (assay: Cytotoxicity against human MDA-MB-435 cells assessed as inhibition of DHT-induced cell growth at 5 uM).
Assay type: functional
Work on `C[C@]12CN(C(=O)c3ccccc3)C[C@](C)(O1)[C@@H]1C(=O)N(c3ccc(C#N)c(C(F)(F)F)c3)C(=O)[C@@H]12` yielded an inhibition at 5 µM of 99%. `CC(C)NC(=O)N1C[C@@]2(C)O[C@@](C)(C1)[C@@H]1C(=O)N(c3ccc(C#N)c(C(F)(F)F)c3)C(=O)[C@@H]12` was tested, and the inhibition at 5 µM was 88%. Compound `C[C@]12CN(C(=O)Nc3ccccc3)C[C@](C)(O1)[C@@H]1C(=O)N(c3ccc(C#N)c(C(F)(F)F)c3)C(=O)[C@@H]12` has an inhibition at 5 µM of 99%. `CCOC(=O)N1C[C@@]2(C)O[C@@](C)(C1)[C@@H]1C(=O)N(c3ccc(C#N)c(C(F)(F)F)c3)C(=O)[C@@H]12` gave an inhibition at 5 µM of 99%. `CCCOC(=O)N1C[C@@]2(C)O[C@@](C)(C1)[C@@H]1C(=O)N(c3ccc(C#N)c(C(F)(F)F)c3)C(=O)[C@@H]12` showed an inhibition at 5 µM of 99%. `C[C@]12CN(C(=O)Nc3ccc(F)cc3)C[C@](C)(O1)[C@@H]1C(=O)N(c3ccc(C#N)c(C(F)(F)F)c3)C(=O)[C@@H]12` gave an inhibition at 5 µM of 99%. `C[C@]12CN(S(C)(=O)=O)C[C@](C)(O1)[C@@H]1C(=O)N(c3ccc(C#N)c(C(F)(F)F)c3)C(=O)[C@@H]12` was tested, and the inhibition at 5 µM was 99%.

These compounds were tested against T1, Androgen receptor.
Description: Antagonist activity at human wild type AR expressed in human MDA-MB-435 cells by transactivation assay
Compound `C[C@]12CN(C(=O)c3ccccc3)C[C@](C)(O1)[C@@H]1C(=O)N(c3ccc(C#N)c(C(F)(F)F)c3)C(=O)[C@@H]12` has an IC50 of 54 nM. `CC(C)NC(=O)N1C[C@@]2(C)O[C@@](C)(C1)[C@@H]1C(=O)N(c3ccc(C#N)c(C(F)(F)F)c3)C(=O)[C@@H]12` showed an IC50 of 876 nM. Compound `C[C@]12CN(C(=O)Nc3ccccc3)C[C@](C)(O1)[C@@H]1C(=O)N(c3ccc(C#N)c(C(F)(F)F)c3)C(=O)[C@@H]12` has an IC50 of 16 nM. `CCOC(=O)N1C[C@@]2(C)O[C@@](C)(C1)[C@@H]1C(=O)N(c3ccc(C#N)c(C(F)(F)F)c3)C(=O)[C@@H]12` was tested, and the IC50 was 65 nM. `CCCOC(=O)N1C[C@@]2(C)O[C@@](C)(C1)[C@@H]1C(=O)N(c3ccc(C#N)c(C(F)(F)F)c3)C(=O)[C@@H]12` gave an IC50 of 9.3 nM. Compound `C[C@]12CN(C(=O)Nc3ccc(F)cc3)C[C@](C)(O1)[C@@H]1C(=O)N(c3ccc(C#N)c(C(F)(F)F)c3)C(=O)[C@@H]12` has an IC50 of 39 nM. `C[C@]12CN(S(C)(=O)=O)C[C@](C)(O1)[C@@H]1C(=O)N(c3ccc(C#N)c(C(F)(F)F)c3)C(=O)[C@@H]12` was tested, and the IC50 was 205 nM.

Molecular target: T1, Androgen receptor
Remark: another data set of the same source
Description: Antagonist activity at wild type human AR expressed in human LNCAP cells by transactivation assay
`C[C@]12CN(C(=O)c3ccccc3)C[C@](C)(O1)[C@@H]1C(=O)N(c3ccc(C#N)c(C(F)(F)F)c3)C(=O)[C@@H]12` gave an IC50 of 177 nM. For `CC(C)NC(=O)N1C[C@@]2(C)O[C@@](C)(C1)[C@@H]1C(=O)N(c3ccc(C#N)c(C(F)(F)F)c3)C(=O)[C@@H]12`, the IC50 was 4600 nM. In the case of `C[C@]12CN(C(=O)Nc3ccccc3)C[C@](C)(O1)[C@@H]1C(=O)N(c3ccc(C#N)c(C(F)(F)F)c3)C(=O)[C@@H]12`, the IC50 is reported as 123 nM. For `CCOC(=O)N1C[C@@]2(C)O[C@@](C)(C1)[C@@H]1C(=O)N(c3ccc(C#N)c(C(F)(F)F)c3)C(=O)[C@@H]12`, the IC50 was 590 nM. Compound `CCCOC(=O)N1C[C@@]2(C)O[C@@](C)(C1)[C@@H]1C(=O)N(c3ccc(C#N)c(C(F)(F)F)c3)C(=O)[C@@H]12` has an IC50 of 54 nM. For `C[C@]12CN(C(=O)Nc3ccc(F)cc3)C[C@](C)(O1)[C@@H]1C(=O)N(c3ccc(C#N)c(C(F)(F)F)c3)C(=O)[C@@H]12`, the IC50 was 104 nM. In the case of `C[C@]12CN(S(C)(=O)=O)C[C@](C)(O1)[C@@H]1C(=O)N(c3ccc(C#N)c(C(F)(F)F)c3)C(=O)[C@@H]12`, the IC50 is reported as 3510 nM.

From ChEMBL document CHEMBL1208719, “Design and synthesis of 4-[3,5-dioxo-11-oxa-4,9-diazatricyclo[5.3.1.0(2,6)]undec-4-yl]-2-trifluoromethyl-benzonitriles as androgen receptor antagonists” (Bioorg Med Chem Lett, 2010)
